The record followed here is patent US8134000B2, “Imidazolyl pyrimidine inhibitor compounds” (Gilead Sciences, Inc., priority 2008, dated 2012).

For one assay, the target named is HDAC 1 (Homo sapiens, UniProt Q13547). The experiment in a line: HDAC 1 inhibition assay with about 3 hours preincubation of enzyme and compound. The assay is classed as biochemical. The note with it: read-out: HDAC 1 inhibitory activity (IC50 [μM]) (3-hour preincubation). Here is the method: The second assay is similar to the first assay described above, except that preincubation is carried out for about 3 hours after the enzyme is introduced. The test compound was suspended in, and titrated in DMSO. It was then spotted into a 384-well test plate. The enzyme, HDAC 1, was diluted in the same assay buffer as used in the previous assay and added to the pre-spotted compound. The enzyme/compound mix was incubated at room temperature for about 3 hours. The peptide substrate containing a fluorophore/quencher pair was diluted in the assay buffer and added to the compound/enzyme mix initiating the reaction. The reaction incubated at room temperature for 45 minutes. A concentrated developer solution was diluted in the assay buffer, and added to the reaction. The reaction was incubated at room temperature for about 15 minutes and relative fluorescence was read on an instrument reader.
Chain of HDAC 1 (Q13547 whole entry, species assumed): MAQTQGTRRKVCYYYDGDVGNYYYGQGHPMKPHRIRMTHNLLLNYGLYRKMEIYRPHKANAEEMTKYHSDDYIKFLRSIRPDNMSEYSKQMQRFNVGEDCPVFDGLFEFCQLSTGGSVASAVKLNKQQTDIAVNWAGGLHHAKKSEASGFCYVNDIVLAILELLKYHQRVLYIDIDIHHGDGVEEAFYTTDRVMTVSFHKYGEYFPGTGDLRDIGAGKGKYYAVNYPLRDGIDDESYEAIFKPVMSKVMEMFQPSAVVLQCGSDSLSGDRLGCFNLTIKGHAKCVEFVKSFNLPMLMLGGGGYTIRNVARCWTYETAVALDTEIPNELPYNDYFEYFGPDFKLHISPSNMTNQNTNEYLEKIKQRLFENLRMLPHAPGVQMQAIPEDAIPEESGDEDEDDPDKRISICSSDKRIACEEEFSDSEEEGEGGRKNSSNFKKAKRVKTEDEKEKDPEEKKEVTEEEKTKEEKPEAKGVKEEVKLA

A further assay deals with CDK2 (Homo sapiens, UniProt P24941). Briefly: CDK2 inhibition (IC50). In kind it is biochemical.

Where only a bound is given, the exact number is not on record here.

The term IC50 denotes the concentration that inhibits the measured activity by half.

Take `Cc1ncc(-c2ccnc(Nc3ccc(C(=O)Nc4cc(-c5cccs5)ccc4N)cc3)n2)n1C(C)C` [Example 3, N-(2-amino-5-thiophen-2-yl-phenyl)-4-[4-(1-isopropyl-2-methylimidazol-5-yl)-pyrimidin-2-ylamino]-benzamide]: the 50% inhibitory concentration (IC50) stood at 0.019 µM at HDAC 1 and 0.04 µM at CDK2.
As for `Cc1ncc(-c2ccnc(Nc3ncc(C(=O)Nc4cc(-c5ccc(F)cc5)ccc4N)s3)n2)n1C(C)C` [Example 15, N-(4-amino-4′-fluorobiphenyl-3-yl)-2-(4-(1-isopropyl-2-methylimidazol-5-yl)pyrimidin-2-ylamino)thiazole-5-carboxamide], the values for the IC50 at HDAC 1 and against CDK2 were 0.049 µM and 1.04 µM, respectively.
Turning to `Cc1ncc(-c2ccnc(Nc3ccc(C(=O)Nc4ccccc4N)cc3)n2)n1C(C)C` [Example 1, N-(2-amino-phenyl)-4-[4-(1-isopropyl-2-methylimidazol-5-yl)-pyrimidin-2-ylamino]-benzamide], the 50% inhibitory concentration (IC50) at HDAC 1 is 0.273 µM; against CDK2, 0.03 µM.
As to `Cc1cc(C(=O)Nc2cc(-c3ccc(F)cc3)ccc2N)sc1Nc1nccc(-c2cnc(C)n2C(C)C)n1` [Example 14, N-(4-amino-4′-fluorobiphenyl-3-yl)-5-(4-(1-isopropyl-2-methylimidazol-5-yl)pyrimidin-2-ylamino)-4-methylthiophene-2-carboxamide], the IC50 at HDAC 1 amounted to 0.028 µM; on CDK2, 0.99 µM.
The matching figures for `Cc1ncc(-c2cnnc(Nc3ccc(C(=O)Nc4ccccc4N)cc3)n2)n1C(C)C` [Example 5, N-(2-aminophenyl)-4-(5-(1-isopropyl-2-methylimidazol-5-yl)-1,2,4-triazin-3-ylamino)benzamide]: 0.423 µM and more than 40 µM.
Regarding `Cc1ncc(-c2ccnc(Nc3ccc(C(=O)NO)s3)n2)n1C(C)C` [Example 8, N-hydroxy-5-(4-(1-isopropyl-2-methylimidazol-5-yl)pyrimidin-2-ylamino)thiophene-2-carboxamide], the 50% inhibitory concentration (IC50) is 0.656 µM on HDAC 1 and 0.002 µM at CDK2.
Consider `Cc1ncc(-c2ccnc(Nc3ccc(C(=O)Nc4cc(F)ccc4N)cc3)n2)n1C(C)C` [Example 4, N-(2-amino-5-fluoro-phenyl)-4-[4-(1-isopropyl-2-methylimidazol-5-yl)-pyrimidin-2-ylamino]-benzamide], for which the 50% inhibitory concentration (IC50) on HDAC 1 stood at 0.809 µM; at CDK2, 0.02 µM.
Regarding `Cc1ncc(-c2nc(Nc3ccc(C(=O)Nc4cc(-c5cccs5)ccc4N)s3)ncc2F)n1C(C)C` [Example 17, N-(2-amino-5-(thiophen-2-yl)phenyl)-5-(5-fluoro-4-(1-isopropyl-2-methylimidazol-5-yl)pyrimidin-2-ylamino)thiophene-2-carboxamide], the IC50 on HDAC 1 amounted to 0.037 µM; against CDK2 it was 0.025 µM.
Taken in the same sequence, the figures for `Cc1ncc(-c2ccnc(Nc3ncc(C(=O)Nc4cc(-c5cccs5)ccc4N)s3)n2)n1C(C)C` [Example 16, N-(2-amino-5-(thiophen-2-yl)phenyl)-2-(4-(1-isopropyl-2-methylimidazol-5-yl)pyrimidin-2-ylamino)thiazole-5-carboxamide] were 0.032 µM and 2.15 µM.
`Cc1ncc(-c2ccnc(Nc3ccc(C(=O)Nc4cc(-c5ccc(F)cc5)ccc4N)s3)n2)n1C(C)C` [Example 13, N-(4-amino-4′-fluorobiphenyl-3-yl)-5-(4-(1-isopropyl-2-methylimidazol-5-yl)pyrimidin-2-ylamino)thiophene-2-carboxamide]: the IC50 at HDAC 1 worked out at 0.054 µM; on CDK2 it was 0.065 µM.
`Cc1ncc(-c2ccnc(Nc3ccc(C(=O)Nc4cc(C(F)(F)F)ccc4N)cc3)n2)n1C(C)C` [Example 6, N-(2-amino-5-(trifluoromethyl)phenyl)-4-(4-(1-isopropyl-2-methylimidazol-5-yl)pyrimidin-2-ylamino)benzamide]: the half-maximal inhibitory concentration (IC50) at HDAC 1 was more than 10 µM; on CDK2 it was 0.01 µM.
As to `Cc1ncc(-c2ccnc(Nc3ccc(C(=O)Nc4ccccc4N)s3)n2)n1C(C)C` [Example 11, N-(2-aminophenyl)-5-(4-(1-isopropyl-2-methylimidazol-5-yl)pyrimidin-2-ylamino)thiophene-2-carboxamide], the results for the half-maximal inhibitory concentration (IC50) on HDAC 1 and against CDK2 were 4.37 µM and 0.012 µM, respectively.
On to `Cc1ncc(-c2ccnc(Nc3ccc(C(=O)NO)cc3)n2)n1C(C)C` [Example 2, N-hydroxy-4-[4-(1-isopropyl-2-methylimidazol-5-yl)-pyrimidin-2-ylamino]-benzamide], for which the concentration for half-maximal inhibition (IC50) at HDAC 1 worked out at 0.241 µM; at CDK2, 0.01 µM.
With `Cc1ncc(-c2cnnc(Nc3ccc(C(=O)Nc4cc(-c5cccs5)ccc4N)cc3)n2)n1C(C)C` [Example 7, N-(2-amino-5-(thiophen-2-yl)phenyl)-4-(5-(1-isopropyl-2-methylimidazol-5-yl)-1,2,4-triazin-3-ylamino)benzamide], the figures for the half-maximal inhibitory concentration (IC50) at HDAC 1 and against CDK2 were 0.03 µM and more than 40 µM, respectively.
On to `Cc1ncc(-c2ccnc(Nc3ncc(C(=O)Nc4ccccc4N)s3)n2)n1C(C)C` [Example 18, N-(2-aminophenyl)-2-(4-(1-isopropyl-2-methylimidazol-5-yl)pyrimidin-2-ylamino)thiazole-5-carboxamide], for which the figures for the half-maximal inhibitory concentration (IC50) on HDAC 1 and on CDK2 were 0.41 µM and 2.1 µM, respectively.
The matching figures for `Cc1ncc(-c2ccnc(Nc3ccc(C(=O)Nc4cc(-c5cccs5)ccc4N)s3)n2)n1C(C)C` [Example 10, N-(2-amino-5-(thiophen-2-yl)phenyl)-5-(4-(1-isopropyl-2-methylimidazol-5-yl)pyrimidin-2-ylamino)thiophene-2-carboxamide]: 0.034 µM and 0.026 µM.
In the case of `Cc1ncc(-c2ccnc(Nc3ccc(C(=O)Nc4cc(-c5ccc(F)cc5)ccc4N)cc3)n2)n1C(C)C` [Example 9, N-(4-amino-4′-fluorobiphenyl-3-yl)-4-(4-(1-isopropyl-2-methylimidazol-5-yl)pyrimidin-2-ylamino)benzamide], the IC50 on HDAC 1 stood at 0.04 µM; on CDK2 it was 0.027 µM.
With `Cc1ncc(-c2ncnc(Nc3ccc(C(=O)Nc4ccccc4N)cc3)n2)n1C(C)C` [Example 12, N-(2-aminophenyl)-4-(4-(1-isopropyl-2-methylimidazol-5-yl)-1,3,5-triazin-2ylamino)benzamide], the values for the 50% inhibitory concentration (IC50) on HDAC 1 and on CDK2 were 0.153 µM and 0.34 µM, respectively.
